Consider 19 compounds from US8853424B2 (Japan Science and Technology Agency, priority 2008, dated 2014).

Where two headings read alike, the source gives them in different places.

In one test the test system is transglutaminase (TGase). In words: Measurement of TG (TGase inhibitory activity, monodansyl cadaverine / N,N-dimethylcasein fluorescence, FDSS 3000). It is filed as biochemical. Put shortly: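 Compound (1 μL of 10 mM stock) added to 0.1 mL reaction: 100 mM HEPES-NaOH pH 7.5, 1 mM CaCl2, 20 μM monodansyl cadaverine, 0.05 mg/mL N,N-dimethylcasein, 5 μg/mL TGase. Rate of fluorescence change at 340 nm measured; DMSO control set to 100; TG50 is the concentration halving activity.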

Test [1] deals with Truncated N-terminal huntington 150 Q-EGFP-Neuron 2a cells. In words: Measurement of x-Fold (polyglutamine aggregation inhibitory activity). Type of test: cell-based. As for the experimental part:
In the present invention, the polyglutamine aggregation inhibitory activity (x-Fold) can be measured, for example, by the method described in the Example.
The number of the aggregated cells, and the total number of cells were counted by Array Scan V T1 (manufactured by Cellomics, Pittuburg, USA), and the ratio of the aggregated cells to the total number of cells was determined (x-Fold). […]

Test [2] concerns SOC (store operated calcium channel). In words: Measurement of SOC IC50 (thapsigargin store depletion, calcium re-addition, CHO cells). To be noted: read-out: SOC IC50. Type of test: cell-based. As to the method:
The SOC (store operated calcium channel)-suppressive action can be measured by the method described in the Example and using, for example, FDSS 3000.
CHO cell culture medium was replaced with a BSS solution which is an extracellular fluidfree of calcium, the compound of the present invention was added 1 min later, and 1 μM thapsigargin was allowed to act thereon 2 min later to deplete intracellular calcium store. […]

The mark [3] stands for this setting: TGase activity with compound (10 mM, 1 μL in 0.1 ml enzyme reaction solution), DMSO control taken as 100.
Setting [4] is: TGase inhibitory activity value, Table 1.
Where [5] appears, read: polyglutamine aggregation inhibitory activity, Table 1.
[6] abbreviates: ratio of aggregated cells to total number of cells, compound 20 μM, 20 hr, almost 1 without compound, smaller = stronger inhibition.
Where [7] appears, read: CHO cells, 1 μM thapsigargin, 2 mM calcium chloride.
Where [8] appears, read: Cricetulus griseus, CHO, Table 1.
Where [9] appears, read: Cricetulus griseus, CHO, CHO cells, 1 μM thapsigargin, 2 mM calcium chloride.

In general, IC50 refers to the concentration that gives 50% inhibition. With “4,4′(phenyl-2-aminoethoxyboryl)diphenyl [Example 10]”, the “TGase activity remaining (% of DMSO control = 100)” value in the test on transglutaminase (TGase) (setting [3]) and in the test with transglutaminase (TGase) (setting [4]) was 7 throughout. Moreover, the x-Fold in test [1] (setting [5]) and in test [1] (setting [6]) was 0.92 throughout. Also, the IC50 in test [2] (setting [7]) was 0.5 µM.

As for “4,4′-((2-aminoethoxy)(3-chloro-4-methylphenyl)boryl)diphenylether [Example 249]”, the “TGase activity remaining (% of DMSO control = 100)” value in the test with transglutaminase (TGase) (setting [3]) and in the test on transglutaminase (TGase) (setting [4]) was 25 in each case. The x-Fold in test [1] (setting [5]) and in test [1] (setting [6]) was 0.74 in each case. Besides, the IC50 in test [2] (setting [7]) is 0.3 µM.

In the case of `NC(=O)CC(N)C(=O)OB(c1ccccc1)c1ccc(Oc2ccc(B(O)c3ccccc3)cc2)cc1` (single isomer, unassigned) [Example 6, (4-(phenylasparagineboryl)phenyl)(4′-(phenylhydroxyboryl)phenyl)ether], the “TGase activity remaining (% of DMSO control = 100)” value turned out to be 23 in the test with transglutaminase (TGase) (setting [3]) and 23 in the test with transglutaminase (TGase) (TGase inhibitory activity value, Table 1, listed as 7132). For the same compound, the x-Fold in test [1] (polyglutamine aggregation inhibitory activity, Table 1, listed as 7132) worked out at 1.01; in test [1] (setting [6]) it was 1.01. Also, in test [2] (setting [8]), the 50% inhibitory concentration (IC50) was 0.2 µM.

As to `OB(c1ccccc1)c1ccc(Oc2ccc(B(O)c3ccccc3)cc2)cc1` [Example 3, bis(4,4′-(phenylhydroxyboryl)phenyl)ether], the “TGase activity remaining (% of DMSO control = 100)” value in the test on transglutaminase (TGase) (setting [3]) and with transglutaminase (TGase) (setting [4]) was −20 in each case. In addition, the x-Fold in test [1] (setting [5]) and in test [1] (setting [6]) was 0.49 in each case. Moreover, the IC50 in test [2] (setting [7]) was 0.5 µM.

Take `OB(c1ccccc1)c1cccc(COCc2cccc(B(O)c3ccccc3)c2)c1` [Example 7, bis(3,3′-(phenylhydroxyboryl)benzyl)ether]: the “TGase activity remaining (% of DMSO control = 100)” value in the test on transglutaminase (TGase) (setting [3]) stood at 14. Besides, the x-Fold in test [1] (setting [6]) was 1.03. Further, in test [2] (setting [7]), the IC50 turned out to be 0.2 µM.

With `NCCSB(c1ccccc1)c1ccc(-c2ccc(B(SCCN)c3ccccc3)cc2)cc1` [Example 9, 4,4′(phenyl-2-aminoethylthioboryl)diphenyl], the “TGase activity remaining (% of DMSO control = 100)” value in the test on transglutaminase (TGase) (setting [3]) and in the test on transglutaminase (TGase) (setting [4]) was 12 in each case. In addition, the x-Fold in test [1] (setting [5]) and in test [1] (setting [6]) was 0.87 each time. In addition, the 50% inhibitory concentration (IC50) in test [2] (setting [7]) was 0.5 µM.

On to `Cc1ccc(B(SCCN)c2ccc(C)c(Cl)c2)cc1Cl` [Example 32, di(3-chloro-4-methylphenyl)-2-aminoethylthioborane], for which the “TGase activity remaining (% of DMSO control = 100)” value in the test on transglutaminase (TGase) (setting [3]) and in the test with transglutaminase (TGase) (setting [4]) was 12 throughout. For the same compound, the x-Fold in test [1] (setting [5]) and in test [1] (setting [6]) was 1.02 in each case. Further, the half-inhibitory concentration (IC50) in test [2] (setting [9]) and in test [2] (setting [8]) was 1 µM throughout.

Turning to `Cc1ccc(B(OC(=O)C(N)CN)c2ccc(C)c(Cl)c2)cc1Cl` (stereo not shown) [Example 71, di(3-chloro-4-methylphenyl)(2,3-diaminopropionate-O,N)borane], the “TGase activity remaining (% of DMSO control = 100)” value in the test with transglutaminase (TGase) (setting [3]) and with transglutaminase (TGase) (setting [4]) was 51 throughout. For the same compound, the x-Fold in test [1] (setting [5]) and in test [1] (setting [6]) was 0.97 throughout. The half-inhibitory concentration (IC50) in test [2] (setting [9]) and in test [2] (setting [8]) was 1 µM in each case.

On to `Cc1ccc(B(OCCN2CCNCC2)c2ccc(C)c(Cl)c2)cc1Cl` [Example 72, di(3-chloro-4-methylphenyl)piperazinoethoxyborane], for which the “TGase activity remaining (% of DMSO control = 100)” value with transglutaminase (TGase) (setting [3]) and in the test with transglutaminase (TGase) (setting [4]) was 41 throughout. The x-Fold in test [1] (setting [5]) and in test [1] (setting [6]) was 1.02 throughout. Also, the IC50 in test [2] (setting [9]) and in test [2] (setting [8]) was 0.5 µM in each case.

As to `Cc1ccc(B(OCCN2CCCCC2)c2ccc(C)c(Cl)c2)cc1Cl` [Example 73, di(3-chloro-4-methylphenyl)piperidinoethoxyborane], the “TGase activity remaining (% of DMSO control = 100)” value in the test on transglutaminase (TGase) (setting [3]) and with transglutaminase (TGase) (setting [4]) was 35 throughout. Further, the x-Fold in test [1] (setting [5]) and in test [1] (setting [6]) was 0.85 each time. For the same compound, the IC50 in test [2] (setting [9]) and in test [2] (setting [8]) was 1.2 µM in each case.

Turning to `CC(C)(C)B(O)c1ccccc1` [Example 109, tertiary-butyl phenyl borinic acid], the “TGase activity remaining (% of DMSO control = 100)” value in the test on transglutaminase (TGase) (setting [3]) and in the test on transglutaminase (TGase) (setting [4]) was 108 throughout. Also, the x-Fold in test [1] (setting [5]) and in test [1] (setting [6]) was 1.02 throughout. Further, the IC50 in test [2] (setting [9]) and in test [2] (setting [8]) was more than 10 µM in each case.

On to `CCC(C)B(OCCN)c1ccccc1` (stereo not shown) [Example 110, aminoethyl secondary-butyl phenylborinate], for which the “TGase activity remaining (% of DMSO control = 100)” value in the test on transglutaminase (TGase) (setting [3]) and with transglutaminase (TGase) (setting [4]) was 115 in each case. The x-Fold in test [1] (setting [5]) and in test [1] (setting [6]) was 1.02 throughout. In addition, the IC50 in test [2] (setting [9]) and in test [2] (setting [8]) was more than 10 µM each time.

For the compound `OCCCCB(O)c1ccccc1` [Example 114, 4-hydroxybutylphenylborinic acid], the “TGase activity remaining (% of DMSO control = 100)” value in the test on transglutaminase (TGase) (setting [3]) and with transglutaminase (TGase) (setting [4]) was 120 in each case. Further, the x-Fold in test [1] (setting [5]) and in test [1] (setting [6]) was 0.99 each time. The IC50 in test [2] (setting [9]) and in test [2] (setting [8]) was 2 µM throughout.

In the case of `NCCOB(c1ccccc1)c1ccc(B(OCCN)c2ccccc2)cc1` [Example 118, 1,4-bis(phenyl-2-aminoethoxyboryl)benzene], the “TGase activity remaining (% of DMSO control = 100)” value in the test with transglutaminase (TGase) (setting [3]) and in the test with transglutaminase (TGase) (setting [4]) was 93 each time. The x-Fold in test [1] (setting [5]) and in test [1] (setting [6]) was 0.97 each time. Besides, the IC50 in test [2] (setting [9]) and in test [2] (setting [8]) was 2 µM each time.

On to `OB(c1ccccc1)c1cccc(B(O)c2ccccc2)c1` [Example 119, 1,3-bis(phenylhydroxyboryl)benzene], for which the “TGase activity remaining (% of DMSO control = 100)” value with transglutaminase (TGase) (setting [3]) worked out at 101. Besides, in test [1] (setting [6]), the x-Fold came to 0.84. For the same compound, the IC50 in test [2] (setting [9]) is more than 20 µM.

Take `CC1[NH2+][B-](c2ccccc2)(c2ccccc2)OC1=O` (stereo not shown) [Example 258, diphenyl(alaninate-O,N)borane]: the “TGase activity remaining (% of DMSO control = 100)” value in the test with transglutaminase (TGase) (setting [3]) and with transglutaminase (TGase) (setting [4]) was 110 in each case. Besides, the half-maximal inhibitory concentration (IC50) in test [2] (setting [9]) and in test [2] (setting [8]) was 5 µM in each case.

Consider `OB(c1ccccc1)c1ccc(COCc2cccc(B(O)c3ccccc3)c2)cc1` [Example 329, (3-(phenylhydroxyboryl)benzyl)(4-(phenylhydroxyboryl)benzyl)ether], for which the “TGase activity remaining (% of DMSO control = 100)” value in the test on transglutaminase (TGase) (setting [3]) and in the test with transglutaminase (TGase) (setting [4]) was 81 each time. Further, the 50% inhibitory concentration (IC50) in test [2] (setting [9]) and in test [2] (setting [8]) was 0.2 µM throughout.

Regarding `NCCSB(c1ccccc1)c1cccc(COCc2cccc(B(SCCN)c3ccccc3)c2)c1` [Example 405, bis(3,3′-(phenyl-aminoethylthioboryl)benzyl)ether], the x-Fold was determined as 0.86 in test [1] (polyglutamine aggregation, Truncated N-terminal huntington 150 Q-EGFP-Neuron 2a cells) and 0.86 in test [1] (setting [6]). The IC50 was found to be 0.5 µM in test [2] (setting [9]) and 0.5 µM in test [2] (Cricetulus griseus, CHO, CHO cells, thapsigargin store depletion).

“bis(3-chloro-4-methylphenyl hydroxyborylbenzyl)ether [Example 125]”: the “TGase activity remaining (% of DMSO control = 100)” value with transglutaminase (TGase) (setting [3]) and in the test with transglutaminase (TGase) (setting [4]) was 113 in each case. Besides, the IC50 in test [2] (setting [7]) stood at 10 µM.
